Where two headings read alike, the source gives them in different places.
System: 284 cell lines
Experiment: cells
Experimental: A screen of 284 cell lines to assess the antiproliferative effect of EHMT2 inhibition was conducted by treating cell lines in 384-well format with a half-log step dilutions of Compound 205 over 10 concentrations with a maximum concentration of 0.1% v/v DMSO. Cells were plated on Day 0 and treated with compound on Day 1. Culture medium was replaced on day 7 and cells redosed. After 10-day incubation, cells were fixed and stained with nuclear dye. Automated fluorescence microscopy was carried out using a Molecular Devices ImageXpress Micro XL high-content imager, and images were collected with a 4× objective. 16-bit TIFF images were acquired and analyzed with MetaXpress 5.1.0.41 software. Cell proliferation was measured by the fluorescence intensity of the incorporated nuclear dye. Cell count IC50 is the test compound concentration at 50% of maximal response of the untreated control.

CNc1cc(C)nc(Nc2ccc(OC)c(OCCCN3CCCC3)c2)n1 [Compound 205]
IC50 (Homo sapiens, T98G, read-out: Cell Count IC50, T98G, Central Nervous System, Glioma): > 10 µM
IC50 (Homo sapiens, TCC-SUP, read-out: Cell Count IC50, TCCSUP, Bladder): 0.1 to 1 µM
IC50 (Homo sapiens, THP-1, read-out: Cell Count IC50, Thp 1, Hematopoietic, Leukemia): 1 to 10 µM
IC50 (Homo sapiens, U2OS, read-out: Cell Count IC50, U2OS, Bone, Osteosarcoma): 1 to 10 µM
IC50 (Homo sapiens, U138-MG, read-out: Cell Count IC50, U-138MG, Central Nervous System, Glioma): 1 to 10 µM
IC50 (Homo sapiens, U-87 MG, read-out: Cell Count IC50, U-87 MG, Central Nervous System, Glioma): 1 to 10 µM
IC50 (Homo sapiens, U-118-MG, read-out: Cell Count IC50, U-118 MG, Central Nervous System, Glioma): 0.1 to 1 µM
IC50 (Homo sapiens, UMUC3, read-out: Cell Count IC50, UM-UC-3, Bladder): 1 to 10 µM
IC50 (Homo sapiens, WM 266-4, read-out: Cell Count IC50, WM-266-4, Skin, Melanoma): 0.1 to 1 µM
IC50 (Homo sapiens, WiDr, read-out: Cell Count IC50, WiDr, Colon): 1 to 10 µM
IC50 (Homo sapiens, YAPC, read-out: Cell Count IC50, YAPC, Pancreas): > 10 µM
IC50 (Homo sapiens, ZR-75-1, read-out: Cell Count IC50, ZR-75-1, Breast): > 10 µM
IC50 (Hs 445, read-out: Cell Count IC50, Hs 445, Hematopoietic, Lymphoma): 1 to 10 µM
IC50 (Hs766T, read-out: Cell Count IC50, Hs 766T, Pancreas): > 10 µM
IC50 (KHOS-240S, read-out: Cell Count IC50, KHOS-240S, Bone, Osteosarcoma): 1 to 10 µM
IC50 (KPL-1, read-out: Cell Count IC50, KPL-1, Breast): > 10 µM
IC50 (MS751, read-out: Cell Count IC50, MS751, Female GU, Cervix): 1 to 10 µM
IC50 (OCUG-1, read-out: Cell Count IC50, OCUG-1, Liver): 0.1 to 1 µM
IC50 (OE21, read-out: Cell Count IC50, OE21, Head and Neck): 1 to 10 µM
IC50 (RKOAS451, read-out: Cell Count IC50, RKO-AS45-1, Colon): 1 to 10 µM
IC50 (SKO-007, read-out: Cell Count IC50, SKO-007, Hematopoietic, Myeloma): 1 to 10 µM
IC50 (TE 381.T, read-out: Cell Count IC50, TE 381.T, Soft & Connective Tissue, Sarcoma): 1 to 10 µM
IC50 (read-out: Cell Count IC50, 5637, Bladder): > 10 µM
IC50 (read-out: Cell Count IC50, A7, Skin, Melanoma): > 10 µM
IC50 (read-out: Cell Count IC50, A388, Skin, Head and Neck): 1 to 10 µM
IC50 (read-out: Cell Count IC50, AGS, Stomach): 1 to 10 µM
IC50 (read-out: Cell Count IC50, AUS65, Breast): 1 to 10 µM
IC50 (read-out: Cell Count IC50, BC-1, Hematopoietic, Lymphoma): 0.1 to 1 µM
IC50 (read-out: Cell Count IC50, C32, Skin, Melanoma): 1 to 10 µM
IC50 (read-out: Cell Count IC50, DB, Hematopoietic, Lymphoma): 0.01 to 0.1 µM
IC50 (read-out: Cell Count IC50, DK-MG, Central Nervous System, Glioma): 1 to 10 µM
IC50 (read-out: Cell Count IC50, EB2, Hematopoietic, Lymphoma): 1 to 10 µM
IC50 (read-out: Cell Count IC50, EB-3, Hematopoietic, Lymphoma): > 10 µM
IC50 (read-out: Cell Count IC50, EM-2, Hematopoietic, Leukemia): 1 to 10 µM
IC50 (read-out: Cell Count IC50, H4, Central Nervous System, Glioma): > 10 µM
IC50 (read-out: Cell Count IC50, HLE, Liver): > 10 µM
IC50 (read-out: Cell Count IC50, HLF, Liver): 1 to 10 µM
IC50 (read-out: Cell Count IC50, HOS, Bone, Osteosarcoma): 0.1 to 1 µM
IC50 (read-out: Cell Count IC50, HT-3, Female GU, Cervix): > 10 µM
IC50 (read-out: Cell Count IC50, HT, Hematopoietic, Lymphoma): 1 to 10 µM
IC50 (read-out: Cell Count IC50, Hs 229.T, Lung, NSCLC): > 10 µM
IC50 (read-out: Cell Count IC50, Hs 611.T, Hematopoietic, Lymphoma): 1 to 10 µM
IC50 (read-out: Cell Count IC50, Hs 688(A).T, Skin, Melanoma): 1 to 10 µM
IC50 (read-out: Cell Count IC50, Hs 729, Soft & Connective Tissue, Sarcoma): 0.01 to 0.1 µM
IC50 (read-out: Cell Count IC50, Hs 821.T, Soft & Connective Tissue, Sarcoma): 1 to 10 µM
IC50 (read-out: Cell Count IC50, Hs 852.T, Skin, Melanoma): > 10 µM
IC50 (read-out: Cell Count IC50, Hs 888.Sk, Bone, Osteosarcoma): > 10 µM
IC50 (read-out: Cell Count IC50, Hs 934.T, Skin, Melanoma): > 10 µM
IC50 (read-out: Cell Count IC50, Hs 936.T(C1), Skin, Melanoma): 1 to 10 µM
IC50 (read-out: Cell Count IC50, IM-9, Hematopoietic, Myeloma): > 10 µM
IC50 (read-out: Cell Count IC50, J82, Bladder): 1 to 10 µM
IC50 (read-out: Cell Count IC50, JAR, Placenta): > 10 µM
IC50 (read-out: Cell Count IC50, KLE, Female GU, Uterus): > 10 µM
IC50 (read-out: Cell Count IC50, MT-3, Colon): 0.1 to 1 µM
IC50 (read-out: Cell Count IC50, MX1, Hematopoietic, Leukemia): > 10 µM
IC50 (read-out: Cell Count IC50, NAMALWA, Hematopoietic, Lymphoma): 1 to 10 µM
IC50 (read-out: Cell Count IC50, PA-1, Female GU, Ovary): 1 to 10 µM
IC50 (read-out: Cell Count IC50, PC-3, Prostate): > 10 µM
IC50 (read-out: Cell Count IC50, RD, Soft & Connective Tissue, Sarcoma): 1 to 10 µM
IC50 (read-out: Cell Count IC50, RKO, Colon): 1 to 10 µM
IC50 (read-out: Cell Count IC50, SH-4, Skin, Melanoma): 1 to 10 µM
IC50 (read-out: Cell Count IC50, SK-PN-DW, Soft & Connective Tissue, Sarcoma): 1 to 10 µM
IC50 (read-out: Cell Count IC50, SR, Hematopoietic, Lymphoma): 1 to 10 µM
IC50 (read-out: Cell Count IC50, T24, Bladder): > 10 µM
IC50 (read-out: Cell Count IC50, TE 125.T, Soft & Connective Tissue, Sarcoma): 0.1 to 1 µM
IC50 (read-out: Cell Count IC50, TF-1, Hematopoietic, Leukemia): 1 to 10 µM
IC50 (read-out: Cell Count IC50, TT, Endocrine, Thyroid): 1 to 10 µM
IC50 (read-out: Cell Count IC50, TUR, Hematopoietic, Lymphoma): 1 to 10 µM
IC50 (read-out: Cell Count IC50, U266B1, Hematopoietic, Myeloma): 1 to 10 µM
IC50 (read-out: Cell Count IC50, VA-ES-BJ, Soft & Connective Tissue, Sarcoma): > 10 µM
IC50 (read-out: Cell Count IC50, Y79, Eve, Eye): > 10 µM

Reference: patent US20240180880A1, “METHODS OF USING EHMT2 INHIBITORS IN TREATING OR PREVENTING BLOOD DISORDERS” (Epizyme, Inc., priority 2017, published 2024)
